The values below come from patent US20190330224A1, “ACC INHIBITORS AND USES THEREOF” (Gilead Apollo, LLC, priority 2015, published 2019).

For assay [1], the system named is Septoria tritici (St). Kind of assay: Growth inhibition assay of fungal pathogens, St. Type of assay: cell-based. The settings on record: Zymoseptoria tritici; 48 hours; read-out: Concentration at 90% Inhibition, St. In outline:
(§1)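 Spores in 17% V8 medium exposed to compound at final 50, 10, 2 ppm or 2, 0.4, 0.08 ppm, with 2% DMSO. OD600 and visual ratings taken at 24 and 48 h, with blank subtracted. Percent growth inhibition derived from 48 h readings relative to 2% DMSO control.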

Assay [2] deals with C. parapsilosis ATCC 22019. Kind of assay: Anti-Fungal Activity Assay (broth microtiter MIC), C. parapsilosis. The format is cell-based, Candida parapsilosis. The settings on record: Lodderomyces parapsilosis, ATCC22019, 48 h, 3 replicates; MIC recorded at 48 h; read-out: MIC C. parapsilosis ATCC 22019. The essentials: (§2)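 Broth microdilution per CLSI M27-A3 in RPMI 1640+MOPS, inoculum from overnight Sabouraud dextrose agar colonies at 35° C; compounds from 1 mg/mL DMSO stocks. MIC read visually against growth control at 48 h, with an added 24 h reading for soraphen.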

In assay [3] the test system is Rhizoctonia solani (Rs). Nature of the assay: Growth inhibition assay of fungal pathogens, Rs. The format is cell-based. The settings on record: 48 hours, read-out: Concentration at 90% Inhibition, Rs.
The test system of assay [4] is C. krusei ATCC 6258. Kind of assay: Anti-Fungal Activity Assay (broth microtiter MIC), C. krusei. The format is cell-based, Candida krusei. The settings on record: Pichia kudriavzevii, ATCC6258, 48 h, 3 replicates; MIC recorded at 48 h; read-out: MIC C. krusei ATCC 6258. In outline:
as §2

In assay [5] the target is Fungal ACC2 (UniProt Q00955). The settings on record: read-out: Fungal ACC2 (IC50, in vitro ACC2 inhibition).
Assay [6] deals with Fusarium moniliforme (Fm). Kind of assay: Growth inhibition assay of fungal pathogens, Fm. Type of assay: cell-based. The note with it: Fusarium verticillioides; 48 hours; read-out: Concentration at 90% Inhibition, Fm. The essentials: as §1
Assay [7] deals with C. albicans ATCC 90028. Kind of assay: Anti-Fungal Activity Assay (broth microtiter MIC), C. albicans. The settings on record: Candida albicans, ATCC90028, 48 h, 3 replicates; MIC recorded at 48 h; read-out: MIC C. albicans ATCC 90028. Type of assay: cell-based, Candida albicans. In outline: as §2
Assay [8] has as its system Fusarium virguliforme (Fv). Kind of assay: Growth inhibition assay of fungal pathogens, Fv. Type of assay: cell-based. The settings on record: 48 hours, read-out: Concentration at 90% Inhibition, Fv. In outline:
as §1

Assay [9] has as its system Collectotrichum graminicola (Cg). Nature of the assay: Growth inhibition assay of fungal pathogens, Cg. Type of assay: cell-based. The settings on record: 48 hours; read-out: Concentration at 90% Inhibition, Cg. The essentials: as §1
The subject of assay [10] is Diplodia maydis (Dm). Nature of the assay: Growth inhibition assay of fungal pathogens, Dm. Type of assay: cell-based. The note with it: Stenocarpella maydis; 48 hours; read-out: Concentration at 90% Inhibition, Dm. The essentials:
as §1

In assay [11] the test system is Botrtyis cinerea (Bc). Nature of the assay: Growth inhibition assay of fungal pathogens, Bc. Type of assay: cell-based. The settings on record: 48 hours; read-out: Concentration at 90% Inhibition, Bc. The essentials:
as §1

The conditions of assay [12]: compound concentration 10 ppm, foliar spray, evaluated 7 days after inoculation.
In assay [13] the target is Human ACC2 (Homo sapiens, UniProt O00763). Nature of the assay: In vitro ACC2 inhibition assay (ADP-Glo), human ACC2. Type of assay: biochemical. The settings on record: 5 nM ACC2, 20 μM ATP, 20 μM acetyl-CoA.
In assay [14] the test system is Blumeria graminis f sp. hordei. Kind of assay: Foliar protection test, barley powdery mildew control. The format is in vivo, Blumeria graminis f sp. hordei on Hordeum vulgare cv. Perry. The settings on record: 168 h, compound concentration 50 ppm, foliar spray, evaluated 7 days after inoculation, read-out: Barley Powdery Mildew Control at 50 ppm. In outline: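 Barley cv. Perry at first true leaf (6 days) sprayed to wetness on both leaf sides with compound in 5% acetone/0.005% Tween 80, typically at 200, 100, 50, 10 or 2 ppm. Inoculated 24 h later by shaking spores from colonized plants; kept at 20-22 °C, 70% RH. Mildew colonization scored 7 days later as percent control.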

Assay [15] concerns Phytophthora capsici (Pc). Nature of the assay: Growth inhibition assay of fungal pathogens, Pc. The format is cell-based. The note with it: 48 hours, read-out: Concentration at 90% Inhibition, Pc. In outline:
as §1

One may read the MIC as the smallest concentration in the dilution series that meets the test's criterion for growth inhibition. Broadly, the IC50 is the concentration at which inhibition is half-maximal.

Each structure is given as a SMILES string. Values after ≈ are worked out from the molar mass of the structure shown.

Chain of Human ACC2 (O00763 whole entry): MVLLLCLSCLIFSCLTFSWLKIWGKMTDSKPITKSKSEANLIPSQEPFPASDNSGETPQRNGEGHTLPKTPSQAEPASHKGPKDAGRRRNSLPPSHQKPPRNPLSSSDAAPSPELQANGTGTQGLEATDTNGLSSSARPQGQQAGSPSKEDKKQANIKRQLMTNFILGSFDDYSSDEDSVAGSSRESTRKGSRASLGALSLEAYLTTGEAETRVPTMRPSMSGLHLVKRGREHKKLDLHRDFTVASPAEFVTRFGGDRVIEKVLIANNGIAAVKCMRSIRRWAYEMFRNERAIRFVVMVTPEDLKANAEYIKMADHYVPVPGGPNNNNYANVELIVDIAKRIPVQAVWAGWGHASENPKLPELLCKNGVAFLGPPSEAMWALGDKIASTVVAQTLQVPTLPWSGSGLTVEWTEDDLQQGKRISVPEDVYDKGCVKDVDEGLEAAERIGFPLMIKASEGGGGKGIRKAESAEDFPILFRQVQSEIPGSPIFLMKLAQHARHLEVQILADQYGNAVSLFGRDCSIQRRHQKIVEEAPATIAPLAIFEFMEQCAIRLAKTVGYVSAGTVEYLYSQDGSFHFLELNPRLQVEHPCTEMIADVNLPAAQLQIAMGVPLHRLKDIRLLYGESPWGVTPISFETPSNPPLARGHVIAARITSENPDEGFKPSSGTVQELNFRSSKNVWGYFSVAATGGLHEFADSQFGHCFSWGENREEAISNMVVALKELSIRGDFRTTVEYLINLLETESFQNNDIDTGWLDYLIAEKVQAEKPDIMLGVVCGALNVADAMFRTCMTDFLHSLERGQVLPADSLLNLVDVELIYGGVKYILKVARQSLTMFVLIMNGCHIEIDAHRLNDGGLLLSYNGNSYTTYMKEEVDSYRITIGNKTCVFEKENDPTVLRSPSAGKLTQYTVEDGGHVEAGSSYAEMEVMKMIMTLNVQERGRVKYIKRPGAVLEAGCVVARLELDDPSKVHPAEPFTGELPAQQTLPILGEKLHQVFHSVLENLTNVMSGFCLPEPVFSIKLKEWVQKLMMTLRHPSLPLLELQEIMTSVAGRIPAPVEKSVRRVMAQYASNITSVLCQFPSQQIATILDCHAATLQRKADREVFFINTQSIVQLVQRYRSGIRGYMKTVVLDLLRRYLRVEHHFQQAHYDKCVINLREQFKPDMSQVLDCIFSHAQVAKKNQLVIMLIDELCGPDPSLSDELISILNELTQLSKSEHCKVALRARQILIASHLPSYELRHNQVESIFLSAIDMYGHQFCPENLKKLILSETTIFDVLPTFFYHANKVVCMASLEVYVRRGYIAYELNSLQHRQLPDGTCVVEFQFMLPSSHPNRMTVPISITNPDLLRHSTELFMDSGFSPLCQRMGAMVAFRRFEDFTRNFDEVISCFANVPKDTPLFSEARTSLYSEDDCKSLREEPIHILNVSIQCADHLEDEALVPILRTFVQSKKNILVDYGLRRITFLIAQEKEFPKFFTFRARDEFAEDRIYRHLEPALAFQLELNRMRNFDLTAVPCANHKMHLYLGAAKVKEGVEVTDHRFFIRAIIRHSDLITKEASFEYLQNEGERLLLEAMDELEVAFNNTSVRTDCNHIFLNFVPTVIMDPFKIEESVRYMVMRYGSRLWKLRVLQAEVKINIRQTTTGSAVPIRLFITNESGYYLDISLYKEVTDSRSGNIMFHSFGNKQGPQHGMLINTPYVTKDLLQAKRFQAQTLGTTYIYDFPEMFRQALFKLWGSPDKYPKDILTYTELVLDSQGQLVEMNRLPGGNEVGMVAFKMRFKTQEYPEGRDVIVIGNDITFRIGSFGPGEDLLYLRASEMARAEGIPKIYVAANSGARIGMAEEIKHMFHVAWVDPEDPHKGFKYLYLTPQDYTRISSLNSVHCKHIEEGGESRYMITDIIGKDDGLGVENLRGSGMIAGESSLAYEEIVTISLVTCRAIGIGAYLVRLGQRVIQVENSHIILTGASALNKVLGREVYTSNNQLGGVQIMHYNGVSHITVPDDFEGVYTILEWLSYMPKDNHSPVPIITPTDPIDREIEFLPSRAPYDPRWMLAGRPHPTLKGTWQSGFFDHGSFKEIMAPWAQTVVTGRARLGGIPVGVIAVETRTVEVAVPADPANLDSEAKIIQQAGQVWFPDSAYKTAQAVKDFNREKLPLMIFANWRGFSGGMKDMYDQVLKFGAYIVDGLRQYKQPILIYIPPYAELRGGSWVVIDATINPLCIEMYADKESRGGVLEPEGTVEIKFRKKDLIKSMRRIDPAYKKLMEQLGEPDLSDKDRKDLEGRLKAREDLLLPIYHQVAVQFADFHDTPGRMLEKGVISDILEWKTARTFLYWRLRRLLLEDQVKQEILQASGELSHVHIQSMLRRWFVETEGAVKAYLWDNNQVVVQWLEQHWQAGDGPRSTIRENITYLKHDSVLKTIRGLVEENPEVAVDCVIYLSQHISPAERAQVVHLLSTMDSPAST
Chain of Fungal ACC2 (Q00955 whole entry): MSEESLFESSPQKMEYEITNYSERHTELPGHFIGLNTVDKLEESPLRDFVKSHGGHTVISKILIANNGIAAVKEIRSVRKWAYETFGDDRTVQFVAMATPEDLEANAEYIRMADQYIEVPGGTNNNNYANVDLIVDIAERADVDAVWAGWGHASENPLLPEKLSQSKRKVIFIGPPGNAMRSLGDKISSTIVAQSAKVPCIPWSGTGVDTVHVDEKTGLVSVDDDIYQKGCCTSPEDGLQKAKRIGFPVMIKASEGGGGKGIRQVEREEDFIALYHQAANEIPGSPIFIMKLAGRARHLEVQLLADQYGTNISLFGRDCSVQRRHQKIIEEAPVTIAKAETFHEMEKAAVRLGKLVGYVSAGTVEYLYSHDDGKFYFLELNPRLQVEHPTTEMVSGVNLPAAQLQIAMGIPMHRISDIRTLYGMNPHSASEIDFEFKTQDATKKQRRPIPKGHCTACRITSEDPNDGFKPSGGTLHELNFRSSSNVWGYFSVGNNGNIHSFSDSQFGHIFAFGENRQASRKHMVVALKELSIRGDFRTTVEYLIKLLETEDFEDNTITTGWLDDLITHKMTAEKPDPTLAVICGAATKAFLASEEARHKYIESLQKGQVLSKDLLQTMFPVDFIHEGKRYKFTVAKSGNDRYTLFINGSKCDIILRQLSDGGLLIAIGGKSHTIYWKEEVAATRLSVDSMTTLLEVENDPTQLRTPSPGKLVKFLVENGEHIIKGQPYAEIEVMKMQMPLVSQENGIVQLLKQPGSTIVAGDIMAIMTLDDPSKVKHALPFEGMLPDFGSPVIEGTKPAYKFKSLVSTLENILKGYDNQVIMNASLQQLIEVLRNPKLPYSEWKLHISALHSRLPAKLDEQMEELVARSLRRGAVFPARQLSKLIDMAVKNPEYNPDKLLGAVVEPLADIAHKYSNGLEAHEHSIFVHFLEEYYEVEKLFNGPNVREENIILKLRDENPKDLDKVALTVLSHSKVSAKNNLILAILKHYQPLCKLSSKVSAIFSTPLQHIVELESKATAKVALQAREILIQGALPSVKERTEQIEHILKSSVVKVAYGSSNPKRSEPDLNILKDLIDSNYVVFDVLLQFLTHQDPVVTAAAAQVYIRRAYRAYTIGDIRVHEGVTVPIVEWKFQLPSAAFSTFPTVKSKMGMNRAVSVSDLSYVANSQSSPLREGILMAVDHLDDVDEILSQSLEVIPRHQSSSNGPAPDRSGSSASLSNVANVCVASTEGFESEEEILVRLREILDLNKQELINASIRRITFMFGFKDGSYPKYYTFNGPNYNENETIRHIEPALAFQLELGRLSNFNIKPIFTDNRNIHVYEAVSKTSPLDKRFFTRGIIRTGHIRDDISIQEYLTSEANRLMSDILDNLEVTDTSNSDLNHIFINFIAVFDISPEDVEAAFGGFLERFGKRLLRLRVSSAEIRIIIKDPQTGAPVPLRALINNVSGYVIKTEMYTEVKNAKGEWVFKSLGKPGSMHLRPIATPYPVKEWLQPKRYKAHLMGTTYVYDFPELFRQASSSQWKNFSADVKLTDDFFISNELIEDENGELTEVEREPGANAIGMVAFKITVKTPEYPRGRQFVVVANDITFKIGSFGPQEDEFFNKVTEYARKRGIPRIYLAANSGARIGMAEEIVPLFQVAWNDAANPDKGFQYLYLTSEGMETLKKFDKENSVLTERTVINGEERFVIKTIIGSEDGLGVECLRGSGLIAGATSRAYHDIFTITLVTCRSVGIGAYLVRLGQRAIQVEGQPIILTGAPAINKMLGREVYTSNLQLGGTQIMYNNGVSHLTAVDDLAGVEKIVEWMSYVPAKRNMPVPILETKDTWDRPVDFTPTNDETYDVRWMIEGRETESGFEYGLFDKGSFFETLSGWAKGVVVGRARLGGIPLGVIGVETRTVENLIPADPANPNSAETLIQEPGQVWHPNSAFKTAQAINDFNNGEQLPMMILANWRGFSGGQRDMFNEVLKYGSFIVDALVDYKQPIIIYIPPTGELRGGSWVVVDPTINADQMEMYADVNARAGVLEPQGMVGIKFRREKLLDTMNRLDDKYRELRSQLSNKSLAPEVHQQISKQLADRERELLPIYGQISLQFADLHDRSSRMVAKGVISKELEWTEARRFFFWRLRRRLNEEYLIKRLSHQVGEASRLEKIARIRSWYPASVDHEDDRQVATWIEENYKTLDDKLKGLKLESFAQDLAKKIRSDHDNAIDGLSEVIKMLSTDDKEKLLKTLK

For the compound `COCCO[C@@H](Cn1c(=O)n([C@@H]2CCCNC2=O)c(=O)c2c(C)c(-n3cccn3)sc21)c1cc(F)ccc1OC` [Compound I-46, 1-((R)-2-(5-fluoro-2-methoxyphenyl)-22-(2-methoxy-ethoxy)ethyl)-5-methyl-3-((R)-2-oxopiperidin-3-yl)-6-(I H-pyrazol-1-yl)thieno[2,3-d]pyrimidine-2,4(1H,3H)-dione], the IC90 in [1], in [3], in assay [6], in [8], in assay [9] and in assay [10] was over 50 µg/mL in each case. The IC90 in assay [11] and in assay [15] was over 50 µg/mL throughout. Moreover, the MIC in [2], in assay [4] and in assay [7] was 2.1 to 4 µg/mL (≈ 3.67 to 7 µM) in each case. In addition, the IC50 was in the range of 10 to 100 nM in assay [5] and 100 to 1000 nM in assay [13]. For the same compound, the “Barley Powdery Mildew Control at 10 ppm” value in assay [12] is “D (provided a compound having <25% control of barley powdery mildew)”. Also, in assay [14], the pest or weed control at 50 ppm lay within 50 to 69%.

Take `COCCO[C@@H](Cn1c(=O)n([C@H]2CCCNC2=O)c(=O)c2c(C)c(-n3cccn3)sc21)c1cc(F)ccc1OC` [Compound I-45, 1-((R)-2-(5-fluoro-2-methoxyphenyl)-2-(2-methoxy-ethoxy)ethyl)-5-methyl-3-((S)-2-oxopiperidin-3-yl)-6-(I H-pyrazol-1-yl)thieno[2,3-d]pyrimidine-2,4(1H,3H)-dione]: the IC90 in [1], in assay [3], in assay [6], in assay [8], in assay [9] and in [10] was over 50 µg/mL each time. Further, the IC90 in assay [11] and in assay [15] was over 50 µg/mL each time. The MIC in [2], in [4] and in assay [7] was 2.1 to 4 µg/mL (≈ 3.67 to 7 µM) in each case. Moreover, the IC50 in assay [5] fell in the range of 2 to 10 nM; in [13], 10 to 100 nM. Also, the “Barley Powdery Mildew Control at 10 ppm” value in assay [12] was “D (provided a compound having <25% control of barley powdery mildew)”. Besides, the pest or weed control at 50 ppm in [14] lay within 50 to 69%.

For the compound `COCCO[C@@H](Cn1c(=O)n([C@@H]2CCNC2=O)c(=O)c2c(C)c(-n3cccn3)sc21)c1cc(F)ccc1OC` [Compound I-42, 1-((R)-2-(5-fluoro-2-methoxyphenyl)-2-(2-methoxy-ethoxy)ethyl)-5-methyl-3-((R)-2-oxopyrrolidin-3-yl)-6-(1H-pyrazol-1-yl)thieno[2,3-d]pyrimidine-2,4(1H,3H)-dione], the IC90 in assay [1], in assay [3], in assay [6], in assay [8], in assay [9] and in [10] was over 50 µg/mL each time. Further, the IC90 in assay [11] and in assay [15] was over 50 µg/mL each time. For the same compound, the MIC in [2], in assay [4] and in [7] was 2.1 to 4 µg/mL (≈ 3.77 to 7.17 µM) in each case. In addition, the IC50 in assay [5] was 2 to 10 nM; in assay [13] it was 10 to 100 nM. Moreover, the “Barley Powdery Mildew Control at 10 ppm” value in assay [12] is “D (provided a compound having <25% control of barley powdery mildew)”. In [14], the pest or weed control at 50 ppm fell in the range of 25 to 49%.

On to `COc1ccc(F)cc1[C@H](Cn1c(=O)n([C@@H]2CCCNC2=O)c(=O)c2c(C)c(-n3nccn3)sc21)OCCO` [Compound I-71, 1-((R)-2-(5-fluoro-2-methoxyphenyl)-2-(2-hydroxy-ethoxy)ethyl)-5-methyl-3-((R)-2-oxopiperidin-3-yl)-6-(2H-1,2,3-triazol-2-yl)thieno[2,3-d]pyrimidine-2,4(1H,3H)-dione], for which the IC90 in assay [1] was over 50 µg/mL; in [3], 2 µg/mL (≈ 3.58 µM); in assay [6], 2 µg/mL (≈ 3.58 µM); in assay [8], 2 µg/mL (≈ 3.58 µM); in [9], 10 µg/mL (≈ 17.9 µM); in assay [10] it was over 50 µg/mL. For the same compound, the IC90 in [11] was 2 µg/mL (≈ 3.58 µM); in assay [15] it was over 50 µg/mL. The MIC in [2], in assay [4] and in assay [7] was 2.1 to 4 µg/mL (≈ 3.76 to 7.16 µM) in each case. Further, the IC50 fell in the range of 0.7 to 2 nM in assay [5] and 2 to 10 nM in assay [13]. Besides, the “Barley Powdery Mildew Control at 10 ppm” value in assay [12] is “D (provided a compound having <25% control of barley powdery mildew)”. Further, the pest or weed control at 50 ppm in assay [14] was 50 to 69%.

For `COCCO[C@@H](Cn1c(=O)n([C@H]2CCCN(C)C2=O)c(=O)c2c(C)c(-n3cccn3)sc21)c1cc(F)ccc1OC` [Compound I-47, 1-((R)-2-(5-fluoro-2-methoxyphenyl)-2-(2-methoxy-ethoxy)ethyl)-5-methyl-3-((S)-1-methyl-2-oxopiperidin-3-yl)-6-(I H-pyrazol-1-yl)thieno[2,3-d]pyrimidine-2,4(1H,3H)-dione], the IC90 in [1], in assay [3], in assay [6], in [8], in assay [9] and in [10] was over 50 µg/mL in each case. In addition, the IC90 in assay [11] and in [15] was over 50 µg/mL each time. Also, the MIC in [2], in assay [4] and in [7] was 2.1 to 4 µg/mL (≈ 3.59 to 6.83 µM) throughout. Besides, the IC50 in [5] was in the range of 2 to 10 nM; in assay [13], 100 to 1000 nM. In addition, in assay [12], the “Barley Powdery Mildew Control at 10 ppm” value is “D (provided a compound having <25% control of barley powdery mildew)”. Besides, in [14], the pest or weed control at 50 ppm fell in the range of 50 to 69%.

Regarding `COCCO[C@@H](Cn1c(=O)n([C@@H]2CCCN(C)C2=O)c(=O)c2c(C)c(-n3cccn3)sc21)c1cc(F)ccc1OC` [Compound I-48, 1-((R)-2-(5-fluoro-2-methoxyphenyl)-2-(2-methoxy-ethoxy)ethyl)-5-methyl-3-((R)-1-methyl-2-oxopiperidin-3-yl)-6-(1H-pyrazol-1-yl)thieno[2,3-d]pyrimidine-2,4(1H,3H)-dione], the IC90 in assay [1], in [3], in [6], in [8], in [9] and in assay [10] was over 50 µg/mL each time. Further, the IC90 in assay [11] and in assay [15] was over 50 µg/mL throughout. In addition, the MIC in assay [2], in assay [4] and in assay [7] was 2.1 to 4 µg/mL (≈ 3.59 to 6.83 µM) throughout. Besides, the IC50 lay within 10 to 100 nM in [5] and 100 to 1000 nM in assay [13]. The “Barley Powdery Mildew Control at 10 ppm” value in [12] is given as “C (provided a compound having from 25 to 49% control of barley powdery mildew)”. In addition, in [14], the pest or weed control at 50 ppm fell in the range of 50 to 69%.

As for `COCCO[C@@H](Cn1c(=O)n([C@H]2CCCNC2=O)c(=O)c2c(C)c(-n3nccn3)sc21)c1cc(F)ccc1OC` [Compound I-29, 1-((R)-2-(5-fluoro-2-methoxyphenyl)-2-(2-methoxy-ethoxy)ethyl)-5-methyl-3-((S)-2-oxopiperidin-3-yl)-6-(2H-1,2,3-triazol-2-yl)thieno[2,3-d]pyrimidine-2,4(1H,3H)-dione], the IC90 in [1] is over 50 µg/mL; in [3] it was over 50 µg/mL; in [6], 10 µg/mL (≈ 17.5 µM); in assay [8] it was over 50 µg/mL; in [9] it was over 50 µg/mL; in assay [10], over 50 µg/mL. For the same compound, the IC90 in [11] is 10 µg/mL (≈ 17.5 µM); in assay [15] it was over 50 µg/mL. Moreover, the MIC in assay [2], in [4] and in assay [7] was 2.1 to 4 µg/mL (≈ 3.67 to 6.99 µM) throughout. In addition, the values for the IC50 in assay [5] and in assay [13] were 0.7 to 2 nM and 10 to 100 nM, respectively. In addition, the “Barley Powdery Mildew Control at 10 ppm” value in assay [12] was “C (provided a compound having from 25 to 49% control of barley powdery mildew)”. Also, the pest or weed control at 50 ppm in assay [14] lay within 70 to 84%.
